The results in this text go back to patent US12668589B2, “N-formamidopyrazoline derivative as P2X3 receptor antagonist and use thereof” (HANGZHOU WESTAN PHARMACEUTICAL TECHNOLOGY CO., LTD, priority 2020, dated 2026).

This assay has as its target T1, human P2X4 (Homo sapiens, UniProt Q99571).
T1 construct: expressed in transfected cells; host or cells: HEK293
T1 sequence (Q99571 1-388): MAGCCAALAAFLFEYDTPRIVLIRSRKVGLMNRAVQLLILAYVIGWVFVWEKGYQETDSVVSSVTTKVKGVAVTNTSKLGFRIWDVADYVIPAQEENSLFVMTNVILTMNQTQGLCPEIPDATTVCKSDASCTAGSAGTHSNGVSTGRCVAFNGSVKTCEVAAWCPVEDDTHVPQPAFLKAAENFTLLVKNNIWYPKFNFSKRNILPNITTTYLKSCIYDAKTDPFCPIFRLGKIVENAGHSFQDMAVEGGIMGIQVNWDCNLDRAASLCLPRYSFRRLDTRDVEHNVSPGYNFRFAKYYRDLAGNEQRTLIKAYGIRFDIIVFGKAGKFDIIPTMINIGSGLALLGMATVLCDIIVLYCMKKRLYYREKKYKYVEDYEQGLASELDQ
Description: Inhibitory activity against human P2X4 (electrophysiological method). In kind it is cell-based. To be noted: read-out: hP2X4 (IC50).

pIC50: −log10 of the molar value.

The term pIC50 denotes the IC50 on a negative log10 scale, so that one unit is a factor of ten. With `Cc1ccc(C2=NN(C(=O)N[C@H](C)c3ccc(C(F)(F)F)nc3)C[C@@H]2N2CCOC2=O)cc1` [Compound 22], the pIC50 was < 4.70.
